Assay results as given in ChEMBL document CHEMBL5055672, “Design, Synthesis, Biological Evaluation, and Computational Studies of Novel Fluorinated Candidates as PI3K Inhibitors: Targeting Fluorophilic Binding Sites” (J Med Chem, 2021).

Assays:
[1] = Selectivity index, ratio of IC50 for human MCF-10A cells to IC50 for human MCF7 cells; type: toxicity; conditions: MCF-10A cells versus MCF7 cells, read-out: Ratio IC50
ACHN = experiment: Cytotoxicity against human ACHN cells assessed as growth inhibition at 10 uM after 48 hrs by sulforhodamine B assay; type: functional; conditions: read-out: GI
[2] = molecular target: Phosphatidylinositol 4,5-bisphosphate 3-kinase catalytic subunit alpha isoform (Homo sapiens, UniProt P42336); experiment: Inhibition of PI3Kalpha (unknown origin) using PIP2 as substrate preincubated for 10 mins followed by substrate addition and measured after 1 hr by ELISA
Chain of Phosphatidylinositol 4,5-bisphosphate 3-kinase catalytic subunit alpha isoform (P42336 whole entry, canonical isoform): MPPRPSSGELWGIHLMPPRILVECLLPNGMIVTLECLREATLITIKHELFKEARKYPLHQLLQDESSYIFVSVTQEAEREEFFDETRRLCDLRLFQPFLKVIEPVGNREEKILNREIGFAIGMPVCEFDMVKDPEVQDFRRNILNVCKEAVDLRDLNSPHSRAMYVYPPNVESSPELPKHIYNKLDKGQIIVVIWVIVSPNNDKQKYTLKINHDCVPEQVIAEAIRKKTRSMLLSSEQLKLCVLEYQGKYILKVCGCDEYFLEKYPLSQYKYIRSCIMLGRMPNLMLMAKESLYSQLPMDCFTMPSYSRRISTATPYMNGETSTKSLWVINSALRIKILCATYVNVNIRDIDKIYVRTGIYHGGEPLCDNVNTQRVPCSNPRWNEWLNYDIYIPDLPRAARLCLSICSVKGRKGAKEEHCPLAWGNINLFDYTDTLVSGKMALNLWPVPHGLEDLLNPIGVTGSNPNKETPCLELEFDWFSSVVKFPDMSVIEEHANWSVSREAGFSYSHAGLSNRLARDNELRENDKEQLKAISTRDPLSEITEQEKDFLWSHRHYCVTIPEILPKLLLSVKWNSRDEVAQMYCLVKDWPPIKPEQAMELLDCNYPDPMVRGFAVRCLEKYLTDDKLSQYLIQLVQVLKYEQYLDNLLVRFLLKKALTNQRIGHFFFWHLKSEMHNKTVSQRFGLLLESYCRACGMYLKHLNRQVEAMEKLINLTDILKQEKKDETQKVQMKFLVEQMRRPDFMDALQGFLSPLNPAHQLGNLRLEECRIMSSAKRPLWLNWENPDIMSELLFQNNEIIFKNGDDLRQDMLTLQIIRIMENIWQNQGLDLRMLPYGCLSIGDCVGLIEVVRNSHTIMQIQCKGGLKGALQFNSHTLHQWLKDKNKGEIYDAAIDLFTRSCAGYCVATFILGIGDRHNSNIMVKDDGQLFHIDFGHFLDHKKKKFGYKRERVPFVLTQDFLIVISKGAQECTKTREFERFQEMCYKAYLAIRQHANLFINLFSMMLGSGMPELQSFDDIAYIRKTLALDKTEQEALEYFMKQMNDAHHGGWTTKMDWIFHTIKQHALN

T47D = experiment: Cytotoxicity against human T47D cells assessed as growth inhibition at 10 uM after 48 hrs by sulforhodamine B assay; type: functional; conditions: read-out: GI
HOP-92 = experiment: Cytotoxicity against human HOP-92 cells assessed as growth inhibition at 10 uM after 48 hrs by sulforhodamine B assay; type: functional; conditions: read-out: GI
CCRF-CEM = experiment: Cytotoxicity against human CCRF-CEM cells assessed as growth inhibition at 10 uM after 48 hrs by sulforhodamine B assay; type: functional; conditions: read-out: GI
SR = experiment: Cytotoxicity against human SR cells assessed as growth inhibition at 10 uM after 48 hrs by sulforhodamine B assay; type: functional; conditions: read-out: GI
NCI-H522 = experiment: Cytotoxicity against human NCI-H522 cells assessed as growth inhibition at 10 uM after 48 hrs by sulforhodamine B assay; type: functional; conditions: read-out: GI
LOX IMVI = experiment: Cytotoxicity against human LOX IMVI cells assessed as growth inhibition at 10 uM after 48 hrs by sulforhodamine B assay; type: functional; conditions: read-out: GI
NCI-H460 = experiment: Cytotoxicity against human NCI-H460 cells assessed as growth inhibition at 10 uM after 48 hrs by sulforhodamine B assay; type: functional; conditions: read-out: GI
MCF7 [3] = experiment: Induction of apoptosis in human MCF7 cells assessed as necrotic cells at 13.30 uM after 48 hrs by annexin V-FITC/propidium iodide staining based flow cytometric analysis (reference value: 1.26%); type: functional; conditions: dose 13.3 µM
SNB-19 = experiment: Cytotoxicity against human SNB-19 cells assessed as growth inhibition at 10 uM after 48 hrs by sulforhodamine B assay; type: functional; conditions: read-out: GI
MOLT-4 = experiment: Cytotoxicity against human MOLT-4 cells assessed as growth inhibition at 10 uM after 48 hrs by sulforhodamine B assay; type: functional; conditions: read-out: GI
U-251 = experiment: Cytotoxicity against human U-251 cells assessed as growth inhibition at 10 uM after 48 hrs by sulforhodamine B assay; type: functional; conditions: read-out: GI
K562 = experiment: Cytotoxicity against human K562 cells assessed as growth inhibition at 10 uM after 48 hrs by sulforhodamine B assay; type: functional; conditions: read-out: GI
SF-268 = experiment: Cytotoxicity against human SF-268 cells assessed as growth inhibition at 10 uM after 48 hrs by sulforhodamine B assay; type: functional; conditions: read-out: GI
MCF7 [4] = experiment: Induction of cell cycle arrest in human MCF7 cells assessed as accumulation of cells at G2/M phase at IC50 concentration by Propidium iodide staining based flow cytometric analysis (reference value: 10.94%); type: functional
MDA-MB-468 = experiment: Cytotoxicity against human MDA-MB-468 cells assessed as growth inhibition at 10 uM after 48 hrs by sulforhodamine B assay; type: functional; conditions: read-out: GI
CAKI-1 = experiment: Cytotoxicity against human CAKI-1 cells assessed as growth inhibition at 10 uM after 48 hrs by sulforhodamine B assay; type: functional; conditions: read-out: GI
HOP-62 = experiment: Cytotoxicity against human HOP-62 cells assessed as growth inhibition at 10 uM after 48 hrs by sulforhodamine B assay; type: functional; conditions: read-out: GI
MCF7 [5] = experiment: Induction of apoptosis in human MCF7 cells assessed as early apoptotic cells at 13.30 uM after 48 hrs by annexin V-FITC/propidium iodide staining based flow cytometric analysis (reference value: 0.36%); type: functional; conditions: dose 13.3 µM
UO-31 = experiment: Cytotoxicity against human UO-31 cells assessed as growth inhibition at 10 uM after 48 hrs by sulforhodamine B assay; type: functional; conditions: read-out: GI
MCF-10A = experiment: Cytotoxicity against human MCF10A cells assessed as inhibition of cell growth incubated for 48 hrs by MTT assay; type: cell-based
SN12C = experiment: Cytotoxicity against human SN12C cells assessed as growth inhibition at 10 uM after 48 hrs by sulforhodamine B assay; type: functional; conditions: read-out: GI
[6] = molecular target: T1, Phosphatidylinositol 4,5-bisphosphate 3-kinase catalytic subunit delta isoform (Homo sapiens, UniProt O00329); experiment: Inhibition of PI3Kdelta (unknown origin) using PIP2 as substrate preincubated for 10 mins followed by substrate addition and measured after 1 hr by ELISA
T1 sequence (O00329 whole entry): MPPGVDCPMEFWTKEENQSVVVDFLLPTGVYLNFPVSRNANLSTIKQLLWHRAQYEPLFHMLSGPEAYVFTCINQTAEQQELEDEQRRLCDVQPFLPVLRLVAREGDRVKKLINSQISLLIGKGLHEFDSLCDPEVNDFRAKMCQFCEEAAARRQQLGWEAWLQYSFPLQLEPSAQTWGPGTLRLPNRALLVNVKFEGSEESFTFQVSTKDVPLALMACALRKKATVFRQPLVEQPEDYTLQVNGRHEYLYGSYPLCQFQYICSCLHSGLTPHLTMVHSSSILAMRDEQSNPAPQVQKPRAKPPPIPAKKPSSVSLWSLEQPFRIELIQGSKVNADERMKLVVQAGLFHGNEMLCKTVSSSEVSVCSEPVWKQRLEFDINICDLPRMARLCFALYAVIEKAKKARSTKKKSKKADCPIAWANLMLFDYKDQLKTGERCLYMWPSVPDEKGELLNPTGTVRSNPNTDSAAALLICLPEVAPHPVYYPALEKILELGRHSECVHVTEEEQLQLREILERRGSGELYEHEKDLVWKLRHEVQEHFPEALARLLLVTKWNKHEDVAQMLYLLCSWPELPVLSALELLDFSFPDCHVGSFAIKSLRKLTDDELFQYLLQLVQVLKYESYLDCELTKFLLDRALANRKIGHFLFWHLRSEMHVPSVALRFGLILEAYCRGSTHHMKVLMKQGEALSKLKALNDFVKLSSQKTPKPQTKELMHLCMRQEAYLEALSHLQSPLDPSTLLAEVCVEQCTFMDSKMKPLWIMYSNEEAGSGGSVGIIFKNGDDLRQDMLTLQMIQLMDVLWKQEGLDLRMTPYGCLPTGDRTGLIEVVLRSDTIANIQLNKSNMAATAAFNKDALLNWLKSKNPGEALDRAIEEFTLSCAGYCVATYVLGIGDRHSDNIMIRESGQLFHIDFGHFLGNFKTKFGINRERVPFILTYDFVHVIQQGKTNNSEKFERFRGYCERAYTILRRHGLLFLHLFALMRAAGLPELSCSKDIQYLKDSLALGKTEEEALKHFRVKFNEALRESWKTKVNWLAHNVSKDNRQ

SNB-75 = experiment: Cytotoxicity against human SNB-75 cells assessed as growth inhibition at 10 uM after 48 hrs by sulforhodamine B assay; type: functional; conditions: read-out: GI
MCF7 [7] = experiment: Antiproliferative activity against human MCF7 cells assessed as inhibition of cell growth incubated for 48 hrs by MTT assay; type: functional, cell-based; conditions: MCF7, 48 h
OVCAR-8 = experiment: Cytotoxicity against human OVCAR8 cells assessed as growth inhibition at 10 uM after 48 hrs by sulforhodamine B assay; type: functional; conditions: read-out: GI

- IC50 [2]: 77.5 µM
- IC50 [6]: 121 µM
- IC50 (MCF7 [7]): 13.3 µM
SMILES: COC(=O)/C=C1\S/C(=N\N=C\c2ccc(OCC(F)(F)F)cc2)N(c2ccccc2)C1=O
- selectivity ratio [1]: 1.81
- inhibition of growth at 10 µM (ACHN): 24%
- inhibition of growth at 10 µM (T47D): 14.5%
- inhibition of growth at 10 µM (HOP-92): 20.1%
- inhibition of growth at 10 µM (CCRF-CEM): 13.5%
- inhibition of growth at 10 µM (SR): 24.7%
- inhibition of growth at 10 µM (NCI-H522): 12.2%
- inhibition of growth at 10 µM (LOX IMVI): 24.1%
- inhibition of growth at 10 µM (NCI-H460): 14.2%
- Activity (MCF7 [3]): 7.39%
- inhibition of growth at 10 µM (SNB-19): 18.2%
- inhibition of growth at 10 µM (MOLT-4): 13.4%
- inhibition of growth at 10 µM (U-251): 23.1%
- inhibition of growth at 10 µM (K562): 25.7%
- inhibition of growth at 10 µM (SF-268): 11.8%
- Activity (MCF7 [4]): 8.51%
- inhibition of growth at 10 µM (MDA-MB-468): 47.6%
- inhibition of growth at 10 µM (CAKI-1): 26.6%
- inhibition of growth at 10 µM (HOP-62): 31.5%
- Activity (MCF7 [5]): 2.71%
- inhibition of growth at 10 µM (UO-31): 24.8%
- IC50 (MCF-10A): 24.2 µM
- inhibition of growth at 10 µM (SN12C): 28.6%
- inhibition of growth at 10 µM (SNB-75): 28.2%
- inhibition of growth at 10 µM (OVCAR-8): 35.5%
